Reference: patent US20160287602A1, “METHODS FOR PROMOTING MOTOR NEURON SURVIVAL” (PRESIDENT AND FELLOWS OF HARVARD COLLEGE, priority 2013, published 2016)
Entries after “also recorded” stand apart in the source; their conditions may differ.

Assays:
Hb9::GFP MNs [1] = test: Number of synapses per MN (synapsin/PSD-95 co-localization, automated imager); assay type: cell-based, mouse
Text: (§1) To examine whether MNs kept alive by AKIs maintain morphological integrity we carried out a series of analyses on surviving MNs in the absence of trophic factors. […] We also used an automated imager to analyze the number of synapses per MN by counting co-localized regions positive for the presynaptic marker synapsin and the postsynaptic marker PSD-95.

SOD1^G93A/Hb9::GFP MNs [2] = test: as above; assay type: cell-based, mouse
Text: as §1

Hb9::GFP MNs [3] = test: MN survival in co-culture with primary WT or SOD1^G93A astrocytes; assay type: cell-based, mouse; conditions: Hb9::GFP MNs on WT or SOD1^G93A astrocytes
Description: (§2) We sought to examine whether AKIs decrease the toxic effect of SOD1^G93A mutant astrocytes. We first cultured primary astrocytes from wild type (WT) and SOD1^G93A mice and plated FACS purified MNs on top. We observed significant cell death when MNs were cultured on mutated astrocytes compared to WT astrocytes. ZM447439 improved both Hb9::GFP and SOD1^G93A/Hb9::GFP MN survival.

SOD1^G93A/Hb9::GFP MNs [4] = test: as above; assay type: cell-based, mouse
Description: as §2

[5] = test system: SOD1^G93A (SOD1^G93A/Hb9::GFP) mouse ESC derived MNs; test: MN survival after trophic factor withdrawal, mixed culture; assay type: cell-based
Text: In the present study, we have screened highly specific small molecule kinase inhibitors to identify those which could promote MN survival. For the screen, we generated MNs from wild-type (Hb9::GFP) and SOD1^G93A (SOD1^G93A/Hb9::GFP) mouse ESCs using published protocols (Di Giorgio et al., 2007). We withdrew trophic factors as a standard method to induce MN death. Cell plating density as well as timing for initiation and duration of trophic factor withdrawal were used exactly as published to achieve ˜80% MN death in 3 days (FIG. 1A) (Yang et al., 2013). […] We continued to work with this compound class as it reproducibly promoted survival of both MNs types and the effect was robust. We further reasoned that since this compound class promoted survival of both MN types, the probability of its working in other contexts such as on human MNs and in the ALS mouse model was maximum.
High expression of Aurora kinases is associated with various types of cancer (Sen et al., 1997; Reichardt et al., 2003; Tchatchou et al., 2007) and there are many AKIs including VX-680 and ZM447439 that are in clinical trials for anti-cancer drug development.
Trophic factors were removed and ZM447439 was added to the cultures as previously and MN survival was analyzed on day 7, 14 & 21.

[6] = test system: HuES-3/Hb9::GFP human ESC derived MNs; test: Human ESC derived MN survival after trophic factor withdrawal; assay type: cell-based; conditions: trophic factors withdrawn
Text: We generated MNs from a human ESC line expressing an HB9::GFP transgene [HuES-3/Hb9::GFP (Di Giorgio et al., 2008)]. Human ESC derived MN cultures were pre-treated with AraC to eliminate progenitor cells. We induced MN death by again withdrawing trophic factors. […] We also investigated the toxic effect of SOD1^G93A astrocytes on human ESC derived MN survival. We found significant death of human MNs cultured on mutant astrocytes.

[7] = test system: Hb9::GFP and SOD1^G93A/Hb9::GFP MNs; test: Microarray analysis of gene expression in MNs; assay type: cell-based, mouse; conditions: compound in the absence of TFs versus -TF
Text: Next we sought to investigate the mechanism by which AKIs promote MN survival. To evaluate this comprehensively we performed microarray analysis to compare gene expression between MNs cultured with: 1) Trophic factors (+TF), 2) No trophic factors (−TF), 3) VX-680 in the absence of TFs, and 4) ZM447439 in the absence of TFs. […] Gene expression was compared between +TF and −TF, VX-680 and −TF, and ZM447439 and −TF. With a cut off of more than 3 fold difference, there were 85 genes overlapping in all three comparison in Hb9::GFP MNs and 57 in SOD1^G93A/Hb9::GFP MNs. We found 39 overlapping genes when we compared both types of MNs (FIG. 5B). […] We analyzed the shortlist of 39 genes by using DAVID functional annotation bioinformatics microarray analysis software to find the potential pathways involved in MN survival. […] PKA is known to phosphorylate BAD protein, leading to increased cell survival (Jose M. LIZCANO et al., 2000; Julian Downward et al., Nature cell biology 1999; Komaki S et al., Neurosci Lett 2012). […] We further investigated this pathway by lentivirus knockdown of Prkarlb.

Prkarlb = test: Prkar1b immunostaining in surviving MNs; assay type: cell-based, mouse; conditions: absence of TFs
iPSCs derived MNs = test: iPSC derived MNs co-cultured with wild type or SOD1^G93A astrocytes; assay type: cell-based, human; conditions: iPSCs derived MNs cultured on wild type or SOD1^G93A astrocytes
Text: We produced MNs from human iPSCs lines including a healthy control, two ALS patients expressing confirmed mutations in SOD1 (Boulting et al., 2011), two with mutations in TDP-43 and one in C90RF72. We treated these cultures with AraC to minimize the number of proliferating progenitors. […] We also examined the effect of SOD 1^G93A astrocytes co-culture on iPSC derived MNs. We found no toxic effect on survival in any of the patient iPSC derived MNs, but we did observe decreased MN survival in the control iPSC derived MNs. […] We also looked at the effect of AKIs on morphology and synapse formation. […] In addition, by immunoblot we observed that ZM447439 enhanced synaptic protein, synaptophysin, expression in both the presence and absence of trophic factors.

## COc1cc2c(Nc3ccc(NC(=O)c4ccccc4)cc3)ncnc2cc1OCCCN1CCOCC1 [ZM447439, N-[4-[[6-Methoxy-7-[3-(4-morpholinyl)propoxy]-4-quinazolinyl]amino]phenyl]benzamide]
Hb9::GFP MNs [1]; absence of trophic factors, Hb9::GFP MNs
  number of synapses per MN: preserved the number of synapses
Hb9::GFP MNs [1]; neurotrophin containing medium
  number of synapses per MN: increased the number of synapses per MN
SOD1^G93A/Hb9::GFP MNs [2]; absence of trophic factors, SOD1^G93A/Hb9::GFP MNs
  number of synapses per MN: preserved the number of synapses
SOD1^G93A/Hb9::GFP MNs [2]; neurotrophin containing medium
  number of synapses per MN: increased the number of synapses per MN
Hb9::GFP MNs [3]
  MN survival in astrocyte co-culture: improved
SOD1^G93A/Hb9::GFP MNs [4]; SOD1^G93A/Hb9::GFP MN co-cultured with SOD1^G93A astrocytes
  MN survival in astrocyte co-culture: less of an increase in survival
SOD1^G93A/Hb9::GFP MNs [4]; SOD1^G93A/Hb9::GFP MNs on WT or SOD1^G93A astrocytes
  MN survival in astrocyte co-culture: improved
[5]; in presence of neurotrophic factors, day 7, 14 & 21
  basal MN death: prevented
[5]; trophic factor withdrawal, 3 days, SOD1^G93A/Hb9::GFP MNs
  survival of MNs (number of surviving MNs): consistently increased the survival of MNs; also recorded: most potent and robust at increasing survival
[5]; trophic factors removed, day 7, 14 & 21, SOD1^G93A/Hb9::GFP MNs
  long term MN survival: increased survival
[6]; FIG. 7A
  human MN survival, comparison of VX-680 and ZM447439: more effective and potent in preventing MN death
[6]; AraC pre-treated cultures
  human MN survival: rescued human MN death
[7]
  expression of genes related to synapse formation (Syt1, Snap25 and Sv2c, Map2 and Dcx): upregulated
Prkarlb
  levels of Prkarlb: increased levels
iPSCs derived MNs
  MN survival in astrocyte co-culture: improved survival
